Among the data in patent US20260250325A1, “Antiviral Polypeptide Membrane Fusion Inhibitor, and Preparation Method and Application Thereof” (priority 2025, published 2026) are IC50 and CC50 values, retold here.

Where two headings read alike, the source gives them in different places. Where a SMILES comes first, the peptide text is derived from it.

The subject of one data set is RSV A long virus strain. In kind it is cell-based. The protocol:
In this embodiment, an RSV-A long virus strain was used as an infection virus in the present disclosure. The anti-RSV activity of the synthesized polypeptide was determined through CPE detection.
The inhibitory activity of the compounds of Table 1-1-Table 1-5, positive polypeptide in Table 1-11, and positive control T-118 against the RSV-A long virus strain was detected.
(§1) Human Epithelial Pharyngeal Carcinoma Cells (HEp-2) were from the American Type Culture Collection (ATCC), with a catalog number CCL-23. The cells were cultured in a DMEM culture solution in which 10% fetal bovine serum, 1% sodium pyruvate, 1% nonessential amino acids, 2 mM glutamine, 100 U/mL penicillin, and 100 μg/mL streptomycin were added. The RSV A long virus strain was from the ATCC, with a catalog number VR-26.
This study used a plaque reduction experiment to detect the in-vitro activity of a test sample against the RSV A long virus strain. The test sample and a control compound were tested at 8 concentrations in duplicated wells. The HEp-2 cells were digested with trypsin and then diluted to a concentration of 300,000 cells per milliliter by using an experimental culture solution. The diluted cells were added to a 96-well cell test board, with 100 μL per well, corresponding to 30000 cells per well. The cells were cultured overnight in a 37° C. incubator with 5% CO2. On the second day, the test sample was diluted in an experimental culture medium at a fold ratio. The sample diluted at a fold ratio and an equal volume of virus (100 PFU per well) were well mixed and incubated at 37° C. in 5% CO2 for 1 h. Then, the culture solution in the 96-well cell test board was discarded, the sample virus mixed solution (200 μL) was added to the 96-well cell culture plate, and incubated at 37° C. in 5% CO2 for 2 hours. After 2 h, the sample virus mixed solution was discarded, and 200 μL of maintenance culture medium containing 0.8% CMC and the corresponding concentration of the test sample was added. A cell control (cells, without compound treatment or viral infection) and a viral control (cell infection virus, without compound treatment) were set. The cells were cultured for 1 day in the 37° C. incubator with 5% CO2. One day after viral infection, the culture medium was discarded, the cells were fixed with 4% paraformaldehyde, and then permeabilization was performed with 0.5% Triton X-100. After the plate was washed with DPBS, an RSV-specific antibody (RSV antibody, diluted 1:3000) was added and incubated at 37° C. for 1 h. Then, a secondary antibody (donkey anti-goat IgG, diluted 1:500) and incubated at 37° C. for 1 h. The secondary antibody was discarded, a TrueBlue solution was added, dyeing was performed for 10 min; and the plate was washed with running water and then air-dried, and the number of spots in each well was counted by using a microplate imaging counter. Raw data was used for calculating the antiviral activity of the samples.
(§2) The raw data for plaque counts and cell viability tests were used for analyzing the antiviral activity and cytotoxicity of the test samples, respectively. A calculation formula was shown as follows.
% inhibition rate=100−(sample value-cell control average value)/(virus control average value-cell control average value)×100%
(§3) Non-linear fitting analysis was performed on the inhibition rate of the sample by using GraphPad Prism (version 10), so as to calculate the IC50 and CC50 values for the sample.
IC50: in an in-vitro antiviral activity experiment, IC50 represented an inhibition ability indicator of a compound to be tested against the Hep-2 cells infected by the RSV A long virus strain.

A short description of data set [1]: Cytotoxicity test in HEp-2 cells (CCK8 cell viability). Particulars: human. In kind it is cell-based. As to the method: as §1
A cytotoxicity test and an antiviral test were performed in parallel. The HEp-2 cells were inoculated in the microplate at a density of 30,000 cells per well, and cultured overnight in the 37° C. incubator with 5% CO2. On the next day, the diluted test sample was added. The cell control (cells, without compound treatment) and a culture solution control (culture solution only, without cell or compound treatment) were set. A final concentration of DMSO in the culture solution was 0.5%. The cells were cultured for 1 day in the 37° C. incubator with 5% CO2. Cell viability was detected by using a cell viability detection kit CCK8.
as §2
cell survival rate=(sample value-culture medium control average value)/(cell control average value-culture medium control average value)×100
as §3
CC50: in the in-vitro antiviral activity experiment, CC50 was used to measure the toxicity of the compound to be tested to the Hep-2 cells. To be precise, when the compound to be tested was at a specific concentration, 50% of the Hep-2 cells was caused to die, and this concentration was defined as the CC50. A fitting formula was log (inhibitor) vs. response-Variable slope (four parameters).

[2] abbreviates: RSV A long virus strain, HEp-2 cells, plaque reduction, 1 day, read-out: IC50.
Setting [3] is: HEp-2 cells, CCK8, 1 day, read-out: CC50.

The compound `CC[C@H](C)[C@H](NC(=O)[C@H](CCCCN)NC(=O)[C@H](CC(C)C)NC(=O)[C@H](CC(C)C)NC(=O)[C@H](CO)NC(=O)[C@H](C)NC(=O)[C@H](CC(=O)O)NC(=O)[C@H](Cc1ccccc1)NC(C)=O)C(=O)N[C@@H](CCC(=O)O)C(=O)N[C@@H](CCC(=O)O)C(=O)N[C@@H](CCC(=O)O)C(=O)N[C@@H](CCCCN)C(=O)N[C@@H](CCCCN)C(=O)N[C@@H](CCCCN)C(=O)N[C@H](C(=O)N[C@@H](CCC(=O)O)C(=O)N[C@@H](CCC(=O)O)C(=O)N[C@@H](CC(C)C)C(=O)N[C@@H](CC(C)C)C(=O)N[C@@H](CCCCN)C(=O)N[C@@H](CC(C)C)C(=O)N[C@@H](Cc1c[nH]cn1)C(=O)N[C@@H](CC(N)=O)C(=O)N[C@@H](CCC(=O)O)C(=O)N[C@@H](CO)C(=O)N[C@@H](CC(=O)O)C(=O)N[C@@H](CCCCN)C(=O)N[C@@H](CCCCN)C(=O)N[C@@H](CC(C)C)C(=O)N[C@@H](CCC(=O)O)C(=O)N[C@@H](CCC(=O)O)C(=O)N[C@H](C(N)=O)C(C)C)[C@@H](C)CC` [Compound 4] (Ac-FDASLLKIEEEKKKIEELLKLHNESDKKLEEV-NH2) displayed an IC50 in the data set on RSV A long virus strain of over 8 µM. Moreover, the half-maximal cytotoxic concentration (CC50) at 1 day in data set [1] is over 8 µM.
`CC[C@H](C)[C@H](NC(=O)[C@H](CCCCN)NC(=O)[C@H](CCCCN)NC(=O)[C@H](CC(C)C)NC(=O)[C@H](CO)NC(=O)[C@H](CCC(=O)O)NC(=O)[C@H](CCC(=O)O)NC(=O)[C@@H](NC(=O)[C@H](CCCCN)NC(=O)[C@H](CCCCN)NC(=O)[C@H](CC(N)=O)NC(=O)[C@@H](NC(=O)[C@H](CCC(=O)O)NC(=O)[C@H](CCC(=O)O)NC(=O)[C@@H](NC(=O)[C@H](CCCCN)NC(=O)[C@H](CCCCN)NC(=O)[C@H](CC(=O)O)NC(=O)[C@H](Cc1ccccc1)NC(=O)[C@H](CCC(=O)O)NC(=O)[C@H](CC(=O)O)NC(=O)[C@H](Cc1c[nH]c2ccccc12)NC(C)=O)[C@@H](C)CC)C(C)C)[C@@H](C)CC)C(=O)N[C@@H](CCC(=O)O)C(=O)N[C@@H](CCC(=O)O)C(=O)N[C@@H](CO)C(=O)N[C@@H](CC(=O)O)C(=O)N[C@@H](CCCCN)C(=O)N[C@@H](CCCCN)C(=O)N[C@@H](CC(C)C)C(=O)N[C@@H](CCC(=O)O)C(=O)N[C@@H](CCC(=O)O)C(=O)N[C@H](C(=O)N[C@@H](CC(N)=O)C(=O)N[C@@H](CCCCN)C(=O)N[C@@H](CCCCN)C(=O)N[C@@H](CC(C)C)C(N)=O)C(C)C` [Compound 5] (Ac-WDEFDKKIEEVNKKIEESLKKIEESDKKLEEVNKKL-NH2): in the data set with RSV A long virus strain (setting [2]), the IC50 stood at 1.12 µM. Also, the CC50 at 1 day in data set [1] (setting [3]) was over 8 µM.
As for `CC[C@H](C)[C@H](NC(=O)[C@H](CO)NC(=O)[C@H](CCC(=O)O)NC(=O)[C@H](CC(N)=O)NC(=O)[C@@H](NC(=O)[C@H](CCCCN)NC(=O)[C@H](CO)NC(=O)[C@H](CO)NC(=O)[C@H](C)NC(=O)[C@H](CC(=O)O)NC(=O)[C@H](CC(N)=O)NC(=O)[C@@H](NC(=O)[C@H](CCC(=O)O)NC(=O)[C@H](CC(C)C)NC(=O)[C@H](CCCNC(=N)N)NC(=O)[C@H](Cc1ccccc1)NC(=O)[C@H](C)NC(=O)[C@H](CC(=O)O)NC(=O)[C@H](C)NC(C)=O)C(C)C)[C@@H](C)CC)C(=O)N[C@@H](CCC(=O)O)C(=O)N[C@@H](CCC(=O)O)C(=O)N[C@@H](CO)C(=O)N[C@@H](CC(C)C)C(=O)N[C@@H](CC(C)C)C(=O)N[C@@H](CO)C(=O)N[C@@H](CC(C)C)C(=O)N[C@@H](CCC(=O)O)C(=O)N[C@@H](CCCCN)C(=O)N[C@@H](CC(C)C)C(=O)N[C@@H](Cc1c[nH]cn1)C(=O)N[C@@H](CC(N)=O)C(=O)N[C@H](C(=O)N[C@@H](CC(N)=O)C(=O)N[C@@H](C)C(=O)N[C@H](C(=O)N[C@@H](C)C(N)=O)[C@@H](C)O)C(C)C` [Compound 6] (Ac-ADAFRLEVNDASSKINESIEESLLSLEKLHNVNATA-NH2), the IC50 in the data set with RSV A long virus strain is over 8 µM. Besides, in data set [1], the CC50 at 1 day was over 8 µM.
With `CC[C@H](C)[C@H](NC(=O)[C@H](Cc1ccccc1)NC(=O)[C@H](C)NC(=O)[C@H](CC(=O)O)NC(=O)[C@H](Cc1ccccc1)NC(C)=O)C(=O)N[C@@H](CCC(N)=O)C(=O)N[C@@H](CCC(=O)O)C(=O)N[C@H](C(=O)N[C@@H](CC(N)=O)C(=O)N[C@H](C(=O)N[C@@H](CC(N)=O)C(=O)N[C@@H](CCC(=O)O)C(=O)N[C@@H](CC(=O)O)C(=O)N[C@@H](CCC(N)=O)C(=O)N[C@@H](CO)C(=O)N[C@@H](CC(C)C)C(=O)N[C@@H](CCC(=O)O)C(=O)N[C@@H](CCC(N)=O)C(=O)N[C@@H](CO)C(=O)N[C@@H](CC(=O)O)C(=O)N[C@@H](CCC(=O)O)C(=O)N[C@@H](CC(C)C)C(=O)N[C@@H](CC(C)C)C(=O)N[C@@H](CC(C)C)C(=O)N[C@@H](CCC(=O)O)C(=O)N[C@@H](CC(C)C)C(=O)N[C@@H](Cc1c[nH]cn1)C(=O)N[C@@H](CC(C)C)C(=O)N[C@@H](CC(C)C)C(=O)N[C@@H](Cc1c[nH]cn1)C(=O)N[C@@H](CO)C(=O)N[C@@H](CC(C)C)C(=O)N[C@@H](CC(C)C)C(=O)N[C@@H](Cc1c[nH]cn1)C(N)=O)C(C)C)[C@@H](C)CC` [Compound 7] (Ac-FDAFIQEINVNEDQSLEQSDELLLELHLLHSLLH-NH2), in the data set on RSV A long virus strain, the IC50 was over 8 µM. For the same compound, the CC50 at 1 day in data set [1] is over 8 µM.
Consider `CC[C@H](C)[C@H](NC(=O)[C@H](CCC(=O)O)NC(=O)[C@H](CCC(=O)O)NC(=O)[C@H](CC(C)C)NC(=O)[C@H](CO)NC(=O)[C@H](CCC(=O)O)NC(=O)[C@H](CCC(=O)O)NC(=O)[C@@H](NC(=O)[C@H](CCCCN)NC(=O)[C@H](CCC(=O)O)NC(=O)[C@H](CC(N)=O)NC(=O)[C@@H](NC(=O)[C@H](CCC(N)=O)NC(=O)[C@H](CC(N)=O)NC(=O)[C@@H](NC(=O)[C@H](CCCCN)NC(=O)[C@H](CCC(N)=O)NC(=O)[C@H](CC(N)=O)NC(=O)[C@H](Cc1ccccc1)NC(=O)[C@H](CCC(=O)O)NC(=O)[C@H](C)NC(=O)[C@H](Cc1ccccc1)NC(C)=O)[C@@H](C)CC)C(C)C)[C@@H](C)CC)C(=O)N[C@@H](CCCNC(=N)N)C(=O)N[C@@H](CCCCN)C(=O)N[C@@H](CO)C(=O)N[C@@H](CC(=O)O)C(=O)N[C@@H](CCC(=O)O)C(=O)N[C@@H](CCC(=O)O)C(=O)N[C@@H](CC(C)C)C(=O)N[C@@H](Cc1c[nH]cn1)C(=O)N[C@@H](CC(N)=O)C(=O)N[C@H](C(=O)N[C@@H](CC(N)=O)C(=O)N[C@@H](C)C(=O)N[C@H](C(=O)N[C@H](C(N)=O)[C@@H](C)O)[C@@H](C)O)C(C)C` [Compound 8] (Ac-FAEFNQKINQVNEKIEESLEEIRKSDEELHNVNATT-NH2), for which the IC50 in the data set with RSV A long virus strain (setting [2]) worked out at 3.77 µM. The CC50 at 1 day in data set [1] (setting [3]) is over 8 µM.
